What all share (test): Drug affinity chromatography with c-ponatinib and LC-MS/MS (ponatinib interactome)
Holding throughout (type): binding

For test [1], the target named is T1, proteins of U2OS cell lysate (Homo sapiens, UniProt O14976).
T1 construct: Proteins enriched by c-ponatinib from U2OS cell lysate; endogenous in cells; host or cells: U2OS cell lysate
The note with it: GAK, Cyclin-G-associated kinase. The procedure, abridged: (§1)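 Proteins were identified by nano-UPLC–MS/MS after elution with formic acid and trypsin digestion. They were captured from U2OS lysate (2 mg protein per pulldown, NP-40 buffer) on amine-coupled NHS beads during a 2 h incubation at 4 °C.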

Test [2] deals with T2, proteins of U2OS cell lysate (Homo sapiens, UniProt P62820).
T2 construct: Proteins enriched by c-ponatinib from U2OS cell lysate; endogenous in cells; host or cells: U2OS cell lysate
T2 sequence (P62820 whole entry): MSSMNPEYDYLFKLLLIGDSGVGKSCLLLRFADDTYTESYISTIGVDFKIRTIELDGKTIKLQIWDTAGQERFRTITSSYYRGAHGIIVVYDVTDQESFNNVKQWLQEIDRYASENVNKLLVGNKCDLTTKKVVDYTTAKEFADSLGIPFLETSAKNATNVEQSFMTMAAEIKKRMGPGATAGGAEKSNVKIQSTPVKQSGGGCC
The conditions noted are these: RAB1A;RAB1B, Ras-related protein Rab-1A. A digest of the protocol: as §1

In test [3] the target is T3, proteins of U2OS cell lysate (Homo sapiens, UniProt O95292).
T3 construct: Proteins enriched by c-ponatinib from U2OS cell lysate; endogenous in cells; host or cells: U2OS cell lysate
The note with it: VAPB, Vesicle-associated membrane protein-associated protein B/C. A digest of the protocol: as §1

Test [4] concerns the target T4, proteins of U2OS cell lysate (Homo sapiens, UniProt P36542).
T4 construct: Proteins enriched by c-ponatinib from U2OS cell lysate; endogenous in cells; host or cells: U2OS cell lysate
The conditions noted are these: ATP5C1, ATP synthase subunit gamma, mitochondrial. A digest of the protocol: as §1

Test [5] has as its target T5, proteins of U2OS cell lysate (Homo sapiens, UniProt P61964).
T5 construct: Proteins enriched by c-ponatinib from U2OS cell lysate; endogenous in cells; host or cells: U2OS cell lysate
The note with it: WDR5, WD repeat-containing protein 5. A digest of the protocol:
as §1

In test [6] the target is T6, proteins of U2OS cell lysate (Homo sapiens, UniProt Q14974).
T6 construct: Proteins enriched by c-ponatinib from U2OS cell lysate; endogenous in cells; host or cells: U2OS cell lysate
T6 sequence (Q14974 whole entry): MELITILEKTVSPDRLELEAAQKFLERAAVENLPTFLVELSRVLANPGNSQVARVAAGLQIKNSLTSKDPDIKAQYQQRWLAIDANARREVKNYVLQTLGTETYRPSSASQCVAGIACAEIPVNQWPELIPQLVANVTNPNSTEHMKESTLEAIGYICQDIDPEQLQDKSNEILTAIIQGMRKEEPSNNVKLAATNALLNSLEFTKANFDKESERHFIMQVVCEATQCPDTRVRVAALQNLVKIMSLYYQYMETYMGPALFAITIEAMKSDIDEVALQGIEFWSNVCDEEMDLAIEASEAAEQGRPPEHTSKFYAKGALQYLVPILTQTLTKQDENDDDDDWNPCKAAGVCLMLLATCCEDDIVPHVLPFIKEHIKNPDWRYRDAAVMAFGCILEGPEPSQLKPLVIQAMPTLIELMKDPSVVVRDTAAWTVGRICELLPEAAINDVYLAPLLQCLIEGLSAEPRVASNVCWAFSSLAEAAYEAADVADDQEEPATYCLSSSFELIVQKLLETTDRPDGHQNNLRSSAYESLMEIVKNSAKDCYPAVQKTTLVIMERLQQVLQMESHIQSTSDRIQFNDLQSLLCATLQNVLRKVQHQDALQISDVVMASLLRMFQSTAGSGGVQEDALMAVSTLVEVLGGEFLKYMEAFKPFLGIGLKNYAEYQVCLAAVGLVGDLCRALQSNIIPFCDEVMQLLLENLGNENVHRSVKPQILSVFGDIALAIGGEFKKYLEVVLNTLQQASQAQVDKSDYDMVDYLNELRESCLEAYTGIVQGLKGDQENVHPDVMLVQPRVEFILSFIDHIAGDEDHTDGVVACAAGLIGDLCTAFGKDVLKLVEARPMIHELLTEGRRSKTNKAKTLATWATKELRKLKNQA
The note with it: KPNB1, Importin subunit beta-1. The procedure, abridged: as §1

The target in test [7] is T7, proteins of U2OS cell lysate (Homo sapiens, UniProt Q13418).
T7 construct: Proteins enriched by c-ponatinib from U2OS cell lysate; endogenous in cells; host or cells: U2OS cell lysate
T7 sequence (Q13418 whole entry): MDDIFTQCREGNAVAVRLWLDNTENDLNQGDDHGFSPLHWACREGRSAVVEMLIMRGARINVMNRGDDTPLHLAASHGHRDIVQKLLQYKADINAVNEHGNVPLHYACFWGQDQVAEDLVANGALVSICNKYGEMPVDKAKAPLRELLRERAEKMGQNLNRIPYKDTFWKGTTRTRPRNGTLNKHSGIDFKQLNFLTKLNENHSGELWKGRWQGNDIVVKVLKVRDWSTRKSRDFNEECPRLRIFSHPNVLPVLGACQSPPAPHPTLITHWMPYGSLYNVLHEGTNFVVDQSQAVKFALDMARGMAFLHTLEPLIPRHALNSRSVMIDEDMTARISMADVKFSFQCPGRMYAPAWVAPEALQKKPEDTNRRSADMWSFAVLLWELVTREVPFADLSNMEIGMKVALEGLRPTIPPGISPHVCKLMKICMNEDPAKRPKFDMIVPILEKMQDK
The conditions noted are these: ILK, Integrin-linked protein kinase. A digest of the protocol: as §1

The target in test [8] is T8, proteins of U2OS cell lysate (Homo sapiens, UniProt P46783).
T8 construct: Proteins enriched by c-ponatinib from U2OS cell lysate; endogenous in cells; host or cells: U2OS cell lysate
The note with it: RPS10;RPS10P5, 40S ribosomal protein S10. The procedure, abridged: as §1

The target of test [9] is T9, proteins of U2OS cell lysate (Homo sapiens, UniProt P27708).
T9 construct: Proteins enriched by c-ponatinib from U2OS cell lysate; endogenous in cells; host or cells: U2OS cell lysate
The note with it: CAD, CAD protein. The procedure, abridged: as §1

Test [10] addresses T10, proteins of U2OS cell lysate (Homo sapiens, UniProt Q8WWI1).
T10 construct: Proteins enriched by c-ponatinib from U2OS cell lysate; endogenous in cells; host or cells: U2OS cell lysate
The conditions noted are these: LMO7, LIM domain only protein 7. A digest of the protocol: as §1

For test [11], the target named is T11, proteins of U2OS cell lysate (Homo sapiens, UniProt P62081).
T11 construct: Proteins enriched by c-ponatinib from U2OS cell lysate; endogenous in cells; host or cells: U2OS cell lysate
The note with it: RPS7, 40S ribosomal protein S7. A digest of the protocol: as §1

Test [12] addresses T12, proteins of U2OS cell lysate (Homo sapiens, UniProt P50991).
T12 construct: Proteins enriched by c-ponatinib from U2OS cell lysate; endogenous in cells; host or cells: U2OS cell lysate
The conditions noted are these: CCT4, T-complex protein 1 subunit delta. The procedure, abridged:
as §1

For test [13], the target named is T13, proteins of U2OS cell lysate (Homo sapiens, UniProt P49756).
T13 construct: Proteins enriched by c-ponatinib from U2OS cell lysate; endogenous in cells; host or cells: U2OS cell lysate
T13 sequence (P49756 whole entry): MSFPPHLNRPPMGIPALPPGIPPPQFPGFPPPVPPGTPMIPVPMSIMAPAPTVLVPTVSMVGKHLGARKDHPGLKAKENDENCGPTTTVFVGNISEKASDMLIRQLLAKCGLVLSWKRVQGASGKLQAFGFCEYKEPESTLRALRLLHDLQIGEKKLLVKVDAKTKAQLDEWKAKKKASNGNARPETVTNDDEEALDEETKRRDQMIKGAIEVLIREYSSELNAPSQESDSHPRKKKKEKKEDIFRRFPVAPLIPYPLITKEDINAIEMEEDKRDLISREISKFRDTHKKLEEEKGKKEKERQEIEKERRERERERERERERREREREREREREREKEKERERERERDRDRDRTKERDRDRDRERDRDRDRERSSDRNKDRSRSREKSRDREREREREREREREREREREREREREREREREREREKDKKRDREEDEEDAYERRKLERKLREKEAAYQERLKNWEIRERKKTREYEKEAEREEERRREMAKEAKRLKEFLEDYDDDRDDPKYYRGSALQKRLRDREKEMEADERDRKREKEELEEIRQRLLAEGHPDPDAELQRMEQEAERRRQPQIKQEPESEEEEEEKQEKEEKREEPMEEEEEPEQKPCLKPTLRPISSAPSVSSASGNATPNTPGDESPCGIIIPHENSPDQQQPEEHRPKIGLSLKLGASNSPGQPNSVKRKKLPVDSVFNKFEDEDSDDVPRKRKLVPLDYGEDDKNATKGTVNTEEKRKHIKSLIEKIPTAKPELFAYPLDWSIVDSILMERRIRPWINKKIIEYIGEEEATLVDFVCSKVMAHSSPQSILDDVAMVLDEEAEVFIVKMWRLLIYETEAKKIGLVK
The conditions noted are these: RBM25, RNA-binding protein 25. A digest of the protocol: as §1

Test [14] concerns the target T14, proteins of U2OS cell lysate (Homo sapiens, UniProt Q92616).
T14 construct: Proteins enriched by c-ponatinib from U2OS cell lysate; endogenous in cells; host or cells: U2OS cell lysate
The conditions noted are these: GCN1L1, Translational activator GCN1. A digest of the protocol:
as §1

The target in test [15] is T15, proteins of U2OS cell lysate (Homo sapiens, UniProt P08238).
T15 construct: Proteins enriched by c-ponatinib from U2OS cell lysate; endogenous in cells; host or cells: U2OS cell lysate
The note with it: HSP90AB1, Heat shock protein HSP 90-beta. The procedure, abridged:
as §1

Test [16] has as its target T16, proteins of U2OS cell lysate (Homo sapiens, UniProt P35580).
T16 construct: Proteins enriched by c-ponatinib from U2OS cell lysate; endogenous in cells; host or cells: U2OS cell lysate
The conditions noted are these: MYH10, Myosin-10. A digest of the protocol:
as §1

For test [17], the target named is T17, proteins of U2OS cell lysate (Homo sapiens, UniProt O00487).
T17 construct: Proteins enriched by c-ponatinib from U2OS cell lysate; endogenous in cells; host or cells: U2OS cell lysate
T17 sequence (O00487 whole entry): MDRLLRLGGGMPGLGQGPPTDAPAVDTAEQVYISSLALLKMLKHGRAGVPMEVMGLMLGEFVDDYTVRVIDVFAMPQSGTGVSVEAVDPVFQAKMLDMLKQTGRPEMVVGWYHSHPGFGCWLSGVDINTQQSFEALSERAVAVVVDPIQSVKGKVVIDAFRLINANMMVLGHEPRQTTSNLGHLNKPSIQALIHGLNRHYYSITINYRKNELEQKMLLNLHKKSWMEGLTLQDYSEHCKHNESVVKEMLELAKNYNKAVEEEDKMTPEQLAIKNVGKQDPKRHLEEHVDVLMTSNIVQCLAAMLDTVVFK
The conditions noted are these: PSMD14, 26S proteasome non-ATPase regulatory subunit 14. The procedure, abridged: as §1

The target in test [18] is T18, proteins of U2OS cell lysate (Homo sapiens, UniProt Q09666).
T18 construct: Proteins enriched by c-ponatinib from U2OS cell lysate; endogenous in cells; host or cells: U2OS cell lysate
The note with it: AHNAK, Neuroblast differentiation-associated protein AHNAK. The procedure, abridged: as §1

Test [19] concerns the target T19, proteins of U2OS cell lysate (Homo sapiens, UniProt Q9UHX1).
T19 construct: Proteins enriched by c-ponatinib from U2OS cell lysate; endogenous in cells; host or cells: U2OS cell lysate
The conditions noted are these: captured protein PUF60, Rank 203. A digest of the protocol: as §1

Data on two compounds can be found in article PMC6120666 (The EMBO Journal, 2018).

T19 sequence (Q9UHX1 whole entry): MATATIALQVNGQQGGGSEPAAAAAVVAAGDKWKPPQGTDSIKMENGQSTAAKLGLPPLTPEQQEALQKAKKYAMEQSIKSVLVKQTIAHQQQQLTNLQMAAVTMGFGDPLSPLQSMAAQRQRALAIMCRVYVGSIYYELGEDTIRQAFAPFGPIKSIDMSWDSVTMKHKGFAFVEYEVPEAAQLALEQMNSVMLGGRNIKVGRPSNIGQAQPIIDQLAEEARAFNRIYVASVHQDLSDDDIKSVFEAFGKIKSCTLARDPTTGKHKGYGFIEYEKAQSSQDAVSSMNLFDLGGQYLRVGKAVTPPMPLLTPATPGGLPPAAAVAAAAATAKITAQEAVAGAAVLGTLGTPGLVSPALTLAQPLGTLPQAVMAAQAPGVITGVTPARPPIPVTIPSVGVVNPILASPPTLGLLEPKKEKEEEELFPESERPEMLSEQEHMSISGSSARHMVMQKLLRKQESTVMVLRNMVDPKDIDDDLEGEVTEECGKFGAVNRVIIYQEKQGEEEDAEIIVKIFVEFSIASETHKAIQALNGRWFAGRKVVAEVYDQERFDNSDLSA
T1 sequence (O14976 whole entry): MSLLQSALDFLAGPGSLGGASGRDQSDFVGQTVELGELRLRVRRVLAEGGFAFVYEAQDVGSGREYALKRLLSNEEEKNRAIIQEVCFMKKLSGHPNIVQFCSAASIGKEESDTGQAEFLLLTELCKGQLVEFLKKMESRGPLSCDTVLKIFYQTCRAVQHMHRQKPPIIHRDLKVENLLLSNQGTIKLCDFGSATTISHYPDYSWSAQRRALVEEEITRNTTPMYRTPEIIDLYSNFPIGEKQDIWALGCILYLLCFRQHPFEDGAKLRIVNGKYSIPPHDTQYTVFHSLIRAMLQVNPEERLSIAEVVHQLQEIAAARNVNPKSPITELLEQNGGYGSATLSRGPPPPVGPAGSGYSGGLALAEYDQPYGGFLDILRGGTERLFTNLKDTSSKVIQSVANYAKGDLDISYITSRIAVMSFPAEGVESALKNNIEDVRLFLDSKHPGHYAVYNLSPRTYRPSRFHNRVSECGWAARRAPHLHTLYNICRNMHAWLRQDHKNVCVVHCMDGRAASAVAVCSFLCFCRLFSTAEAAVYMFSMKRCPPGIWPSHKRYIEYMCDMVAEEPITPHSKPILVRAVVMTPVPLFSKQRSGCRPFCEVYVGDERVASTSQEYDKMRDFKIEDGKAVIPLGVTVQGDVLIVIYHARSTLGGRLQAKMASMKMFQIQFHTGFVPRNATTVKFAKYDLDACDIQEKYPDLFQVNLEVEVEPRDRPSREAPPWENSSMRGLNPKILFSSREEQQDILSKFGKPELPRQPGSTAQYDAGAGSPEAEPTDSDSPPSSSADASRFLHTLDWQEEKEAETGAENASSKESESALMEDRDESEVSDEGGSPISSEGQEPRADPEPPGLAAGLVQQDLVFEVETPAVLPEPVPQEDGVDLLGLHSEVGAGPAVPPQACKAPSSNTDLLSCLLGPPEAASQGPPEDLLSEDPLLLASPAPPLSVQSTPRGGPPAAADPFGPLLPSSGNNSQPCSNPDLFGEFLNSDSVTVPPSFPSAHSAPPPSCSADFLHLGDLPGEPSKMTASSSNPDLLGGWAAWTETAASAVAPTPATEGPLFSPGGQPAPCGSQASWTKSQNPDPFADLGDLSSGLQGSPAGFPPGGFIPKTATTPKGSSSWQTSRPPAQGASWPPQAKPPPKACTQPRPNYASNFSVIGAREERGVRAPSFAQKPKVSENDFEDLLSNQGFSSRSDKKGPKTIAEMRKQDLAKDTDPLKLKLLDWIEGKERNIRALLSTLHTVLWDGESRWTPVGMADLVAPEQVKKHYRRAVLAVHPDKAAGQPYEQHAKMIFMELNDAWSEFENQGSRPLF
T4 sequence (P36542 26-298): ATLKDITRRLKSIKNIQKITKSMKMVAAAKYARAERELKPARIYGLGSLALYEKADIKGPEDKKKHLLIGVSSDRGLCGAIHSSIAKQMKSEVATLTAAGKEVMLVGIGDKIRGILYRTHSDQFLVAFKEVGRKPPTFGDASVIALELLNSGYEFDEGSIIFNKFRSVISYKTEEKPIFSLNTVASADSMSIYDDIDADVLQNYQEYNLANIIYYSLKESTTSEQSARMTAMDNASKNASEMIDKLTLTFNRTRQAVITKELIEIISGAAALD

On to `Cc1ccc(C(=O)Nc2ccc(CN3CCN(C)CC3)c(C(F)(F)F)c2)cc1C#Cc1cnc2cccnn12` [PON], for which the “Average LFQ PON_WT” value is given as 23.4188 in [1]; 23.3468 in [2]; 20.7048 in [3]; 21.058 in test [4]; 20.2851 in test [5]; 23.6067 in test [6]. The “Average LFQ PON_WT” value in test [7] was 21.0026; in test [8], 21.6692; in test [9], 21.3466; in test [10] it was 20.1594; in test [11], 20.8944; in test [12], 23.8741. In addition, the “Average LFQ PON_WT” value in [13] is recorded as 20.8592; in [14] it was 23.5357; in test [15] it was 24.5074; in test [16] it was 20.7261; in test [17], 20.7842; in test [18] it was 26.25.
In the case of `Cc1ccc(C(=O)Nc2ccc(CN3CCN(CCCN)CC3)c(C(F)(F)F)c2)cc1C#Cc1cnc2cccnn12` [c-ponatinib, reference compound], the “Average LFQ intensity” value in test [19] was found to be 21.804.
